Earlier results in patent US11904002B2, “Construction and methods of use of a therapeutic cancer vaccine library comprising fusion-specific vaccines” (BostonGene Corporation, priority 2016, dated 2024).

System: CD8+ T-cells
Conditions: CD8+ T-cells generated as a consequence of anti-PD1 treatment; murine MHC H-2Kb

## VGFNFRTL
  recognition by CD8+ T-cells: targets of CD8+ T-cells

## ITYTWTRL
  recognition by CD8+ T-cells: targets of CD8+ T-cells
